≈ marks a conversion by molar mass, not a printed value.
Tests used:
Assay type in all cases: functional
[1] = test system: Candida albicans; assay: Antifungal activity against Candida albicans Berkout KCCM 50235 after 1 day by standard two fold broth dilution method; conditions: Berkout KCCM 50235, 24 h
[2] = test system: Candida tropicalis; assay: Antifungal activity against Candida tropicalis Berkout KCCM 50662 after 1 day by two fold broth dilution method; conditions: Berkout KCCM 50662, 24 h
[3] = test system: Pichia kudriavzevii; assay: Antifungal activity against Candida krusei Berkout KCCM 11655 after 1 day by two fold broth dilution method; conditions: Berkout KCCM 11655, 24 h
[4] = test system: Cryptococcus neoformans; assay: Antifungal activity against Cryptococcus neoformans Berkout KCCM 50564 after 1 day by two fold broth dilution method; conditions: Berkout KCCM 50564, 24 h
[5] = test system: Aspergillus niger; assay: Antifungal activity against Aspergillus niger KCTC 1231 after 2 days by two fold broth dilution method; conditions: KCTC 1231, 48 h
[6] = test system: Aspergillus flavus; assay: Antifungal activity against Aspergillus flavus KCCM 11899 after 2 days by two fold broth dilution method; conditions: KCCM 11899, 48 h

With COc1ccc2c(C(C)=O)c3c(n2c1)C(=O)c1ccccc1C3=O the MIC [1] was 3.2 µg/mL (≈ 10 µM), the MIC [2] was 3.2 µg/mL (≈ 10 µM) and the MIC [3] was 6.3 µg/mL (≈ 19.7 µM). It also gave an MIC [4] of 12.5 µg/mL (≈ 39.1 µM), an MIC [5] of 6.3 µg/mL (≈ 19.7 µM) and an MIC [6] of 12.5 µg/mL (≈ 39.1 µM).

For OC(Cn1cncn1)(Cn1cncn1)c1ccc(F)cc1F [FLUCONAZOLE], the MIC [1] was 50 µg/mL (≈ 163 µM), the MIC [2] was 3.2 µg/mL (≈ 10.4 µM) and the MIC [3] was 25 µg/mL (≈ 81.6 µM). For the same compound, the MIC [4] was 6.3 µg/mL (≈ 20.6 µM), the MIC [5] was 6.3 µg/mL (≈ 20.6 µM) and the MIC [6] was 25 µg/mL (≈ 81.6 µM).

COC(=O)c1c2c(n3ccc(C)cc13)C(=O)C(C)=C(C)C2=O showed an MIC [1] of 6.3 µg/mL (≈ 21.2 µM), an MIC [2] of 6.3 µg/mL (≈ 21.2 µM) and an MIC [3] of 6.3 µg/mL (≈ 21.2 µM). It also gave an MIC [4] of 25 µg/mL (≈ 84.1 µM), an MIC [5] of 6.3 µg/mL (≈ 21.2 µM) and an MIC [6] of 3.2 µg/mL (≈ 10.8 µM).

COc1ccn2c3c(cc2c1)C(=O)c1ccccc1C3=O gave an MIC [1] of 50 µg/mL (≈ 180 µM), an MIC [2] of 25 µg/mL (≈ 90.2 µM) and an MIC [3] greater than 100 µg/mL. For the same compound, the MIC [4] was greater than 100 µg/mL, the MIC [5] was 25 µg/mL (≈ 90.2 µM) and the MIC [6] was 6.3 µg/mL (≈ 22.7 µM).

For CCOC(=O)c1c2c(n3ccccc13)C(=O)c1ccccc1C2=O, the MIC [1] was greater than 100 µg/mL, the MIC [2] was 25 µg/mL (≈ 78.3 µM) and the MIC [3] was 12.5 µg/mL (≈ 39.1 µM). It also gave an MIC [4] of 25 µg/mL (≈ 78.3 µM), an MIC [5] of 12.5 µg/mL (≈ 39.1 µM) and an MIC [6] of 6.3 µg/mL (≈ 19.7 µM).

COC(=O)c1c2c(n3cc(C)ccc13)C(=O)c1ccccc1C2=O was tested, and the MIC [1] was 25 µg/mL (≈ 78.3 µM), the MIC [2] was greater than 100 µg/mL and the MIC [3] was 50 µg/mL (≈ 157 µM). It also gave an MIC [4] of 25 µg/mL (≈ 78.3 µM), an MIC [5] of 25 µg/mL (≈ 78.3 µM) and an MIC [6] of 50 µg/mL (≈ 157 µM).

Compound COC(=O)c1c2c(n3ccc(OC)cc13)C(=O)c1ccccc1C2=O has an MIC [1] of 25 µg/mL (≈ 74.6 µM), an MIC [2] of 50 µg/mL (≈ 149 µM) and an MIC [3] of 50 µg/mL (≈ 149 µM). For the same compound, the MIC [4] was 25 µg/mL (≈ 74.6 µM), the MIC [5] was 3.2 µg/mL (≈ 9.54 µM) and the MIC [6] was 12.5 µg/mL (≈ 37.3 µM).

With COc1ccn2c3c(cc2c1)C(=O)C(C)=C(C)C3=O the MIC [1] was 6.3 µg/mL (≈ 24.7 µM), the MIC [2] was 6.3 µg/mL (≈ 24.7 µM) and the MIC [3] was 12.5 µg/mL (≈ 49 µM). The MIC [4] was 1.6 µg/mL (≈ 6.27 µM), the MIC [5] was 12.5 µg/mL (≈ 49 µM) and the MIC [6] was 6.3 µg/mL (≈ 24.7 µM).

CCOC(=O)c1c2c(n3cc(C)ccc13)C(=O)c1ccccc1C2=O gave an MIC [1] of 12.5 µg/mL (≈ 37.5 µM), an MIC [2] of 6.3 µg/mL (≈ 18.9 µM) and an MIC [3] of 25 µg/mL (≈ 75 µM). It also gave an MIC [4] of 12.5 µg/mL (≈ 37.5 µM), an MIC [5] of 3.2 µg/mL (≈ 9.6 µM) and an MIC [6] of 25 µg/mL (≈ 75 µM).

Work on Cc1ccn2c3c(cc2c1)C(=O)c1ccccc1C3=O yielded an MIC [1] of 12.5 µg/mL (≈ 47.8 µM), an MIC [2] of 12.5 µg/mL (≈ 47.8 µM) and an MIC [3] of 6.3 µg/mL (≈ 24.1 µM). It also gave an MIC [4] of 6.3 µg/mL (≈ 24.1 µM), an MIC [5] of 50 µg/mL (≈ 191 µM) and an MIC [6] of 3.2 µg/mL (≈ 12.2 µM).

CCc1ccn2c3c(c(C(=O)OC)c2c1)C(=O)C(C)=C(C)C3=O was tested, and the MIC [1] was 3.2 µg/mL (≈ 10.3 µM), the MIC [2] was 12.5 µg/mL (≈ 40.1 µM) and the MIC [3] was 25 µg/mL (≈ 80.3 µM). The MIC [4] was 0.8 µg/mL (≈ 2.57 µM), the MIC [5] was 1.6 µg/mL (≈ 5.14 µM) and the MIC [6] was 6.3 µg/mL (≈ 20.2 µM).

For COc1cc[n+](C2=C(Cl)C(=O)C(C)=C(C)C2=O)cc1.[Cl-], the MIC [1] was 25 µg/mL, the MIC [2] was 100 µg/mL and the MIC [3] was 12.5 µg/mL. The MIC [4] was 6.3 µg/mL, the MIC [5] was 25 µg/mL and the MIC [6] was 25 µg/mL.

CC1=C(C)C(=O)C([n+]2ccc(C)cc2)=C(Cl)C1=O.[Cl-] gave an MIC [1] of 12.5 µg/mL, an MIC [2] of 6.3 µg/mL and an MIC [3] of 6.3 µg/mL. The MIC [4] was 3.2 µg/mL, the MIC [5] was 25 µg/mL and the MIC [6] was 6.3 µg/mL.

CCOC(=O)c1c2c(n3ccc(C#N)cc13)C(=O)C(C)=C(C)C2=O gave an MIC [1] of 3.2 µg/mL (≈ 9.93 µM), an MIC [2] of 3.2 µg/mL (≈ 9.93 µM) and an MIC [3] of 6.3 µg/mL (≈ 19.5 µM). It also gave an MIC [4] of 6.3 µg/mL (≈ 19.5 µM), an MIC [5] of 6.3 µg/mL (≈ 19.5 µM) and an MIC [6] of 3.2 µg/mL (≈ 9.93 µM).

Work on Cc1ccn2c3c(c(C)c2c1)C(=O)c1ccccc1C3=O yielded an MIC [1] of 6.3 µg/mL (≈ 22.9 µM), an MIC [2] of 12.5 µg/mL (≈ 45.4 µM) and an MIC [3] of 50 µg/mL (≈ 182 µM). For the same compound, the MIC [4] was 12.5 µg/mL (≈ 45.4 µM), the MIC [5] was 3.2 µg/mL (≈ 11.6 µM) and the MIC [6] was 25 µg/mL (≈ 90.8 µM).

Nc1nc(=O)[nH]cc1F [FLUCYTOSINE] gave an MIC [1] of 3.2 µg/mL (≈ 24.8 µM), an MIC [2] of 6.3 µg/mL (≈ 48.8 µM) and an MIC [3] of 6.3 µg/mL (≈ 48.8 µM). For the same compound, the MIC [4] was 6.3 µg/mL (≈ 48.8 µM), the MIC [5] was 6.3 µg/mL (≈ 48.8 µM) and the MIC [6] was 25 µg/mL (≈ 194 µM).

With Cc1cc[n+](C2=C(Cl)C(=O)c3ccccc3C2=O)cc1.[Cl-] the MIC [1] was greater than 100 µg/mL, the MIC [2] was greater than 100 µg/mL and the MIC [3] was greater than 100 µg/mL. It also gave an MIC [4] greater than 100 µg/mL, an MIC [5] of 50 µg/mL and an MIC [6] greater than 100 µg/mL.

With CC1=C(C)C(=O)c2c(cc3cc(C)ccn23)C1=O the MIC [1] was 12.5 µg/mL (≈ 52.2 µM), the MIC [2] was 6.3 µg/mL (≈ 26.3 µM) and the MIC [3] was 12.5 µg/mL (≈ 52.2 µM). It also gave an MIC [4] of 6.3 µg/mL (≈ 26.3 µM), an MIC [5] of 12.5 µg/mL (≈ 52.2 µM) and an MIC [6] of 1.6 µg/mL (≈ 6.69 µM).
